In a melting point compilation (Tetko et al.; mined from patent text by program, amines drawn as free bases though some values may be those of a salt) one finds melting point data, which are given here for 61 compounds.

SMILES strings stand for the structures. Some results are limits rather than exact numbers.

For orientation: melting point means the temperature, or range, at which the solid turns liquid. With `CN(Cc1cc(C(F)(F)F)cc(C(F)(F)F)c1)C(=O)c1oc(=O)c2ccc(Cl)cc2c1-c1ccccc1`, the melting point fell in the range of 170 to 171 °C.

With `CCCn1cc2c(C3C(=O)Nc4ccc(Cl)cc43)ncnc2n1` (stereo unspecified), the melting point lay in the range of 302 to 306 °C.

`COc1cc2c(Nc3ccc(Sc4nccn4C)c(Cl)c3)c(C#N)cnc2cc1OCCCN1CCC(N2CCCC2)CC1` showed a melting point of 196 to 198 °C.

As to `CCC(=O)c1ccc(-c2cc(NC(=O)OC(C)(C)C)ccc2C)c(C)c1`, the melting point was determined as 119 °C.

The compound `O=[N+]([O-])c1cc(Cl)cc2cccnc12` returned a melting point of 149 to 155 °C.

Take `CC(C)(C)c1cccc(C[C@H]2NC(=O)O[C@H]2c2cccc(Cl)c2)c1` (racemic): the melting point fell in the range of 136 to 137 °C.

`CCOC(CCNC(=O)CCC(=O)NCCC(OCC)OCC)OCC` displayed a melting point of 89 to 90 °C.

The compound `O=C(Nc1ccccc1)Oc1ccc(N=C=S)cc1` came in with a melting point of 139 to 142 °C.

The compound `Cc1nccn1CCCNC(=O)c1cc2ccccc2[nH]1` showed a melting point of 235 to 237 °C.

`CCc1nc(N)nc(N)c1-c1ccc(NCCc2ccccc2)c([N+](=O)[O-])c1` yielded a melting point of 222 to 225 °C.

With `CN1C(=O)NC(c2ccccc2)c2cc3c(cc21)OCO3` (stereo unspecified), the melting point lay in the range of 228 to 230 °C.

For the compound `CNc1nc(-n2cc(C(=O)O)c(=O)c3cc(F)c(F)c(Cl)c32)c(F)cc1F`, the melting point was 236 to 242 °C.

`Cc1cccc(NC(=O)NCc2ccc(-c3n[nH]c4c3Cc3cc(CN5CCOCC5)ccc3-4)s2)c1` came in with a melting point of 158 to 161 °C.

For the compound `O=C1CCc2c(Oc3ccc([N+](=O)[O-])cn3)cccc21`, the melting point lay within 119 to 123 °C.

In turn, `Cc1cc2ccccc2c(Oc2ccc(/C=C/C(=O)O)cc2)c1-c1ccccc1` returned a melting point of 224 to 225 °C.

Consider `O=C(c1ccccc1)N1CCc2[nH]c3ccc(-c4ccccc4)cc3c2CC1`, for which the melting point was in the range of 140 to 145 °C.

Consider `CCn1ccc2ncnc(Oc3ccc(NC(=O)Nc4cccc(C(F)(F)F)c4)c(Cl)c3)c21`, for which the melting point was 172 to 176 °C.

The compound `COc1ccccc1Nc1ncccc1[N+](=O)[O-]` yielded a melting point of 151 to 153 °C.

`CCOC(=O)[C@@H]1Cc2ccc([N+](=O)[O-])cc2CN1` registered a melting point of 94 to 95 °C.

For the compound `CC(=Cc1ccc(Br)cc1)c1ccc2c(C)c(C)c(C)c(C)c2c1`, the melting point fell in the range of 133 to 136 °C.

On to `CC(Cc1ccc(C(=O)OCOC(=O)C(C)(C)C)cc1)NCC(O)c1ccc(O)c(CO)c1` (stereo unspecified), for which the melting point was 55 to 57 °C.

The compound `CCCCN(CCCC)c1ccc(C=CC=CC2=C(C#N)C(=C(C#N)C#N)OC2(C)C(F)(F)F)c(OC)c1` (stereo unspecified) had a melting point of 169 to 170 °C.

In the case of `CC1Sc2nccn2C1(C)C(O)C=Cc1ccco1` (stereo unspecified), the melting point fell in the range of 149 to 150 °C.

In turn, `CCOC(=O)c1c(N2CCN(C=O)CC2)c2cc(C)ccc2n(Cc2ccccc2)c1=O` displayed a melting point of 196 °C.

With `CCOC(=O)C(Br)=NNc1ccc(F)cc1`, the melting point fell in the range of 99 to 100 °C.

Turning to `COc1ccc(C(=O)Nc2ccccc2)cc1Nc1ccc(F)cc1`, the melting point fell in the range of 178 to 180 °C.

Compound `Clc1cc(Cl)c2nccc(Br)c2c1` gave a melting point of 164 to 166 °C.

`COc1ccccc1N1CCN(CCc2ccc(OC(=O)C(C)(C)C)c3ncccc23)CC1`: the melting point was 115 °C.

As to `CC1CC=NN1C(=O)c1cnccn1` (stereo unspecified), the melting point was in the range of 77 to 79 °C.

Compound `Clc1cc(Cl)c2oc(Cl)nc2c1` showed a melting point of 140 to 142 °C.

Consider `CS(=O)(=O)Nn1c(=O)[nH]c2cc(C(F)(F)F)c(-c3cccc(C#N)c3)cc2c1=O`, for which the melting point was in the range of 291 to 292 °C.

`CC(C)C[C@H](NC(=O)OC(C)(C)C)C(=O)N[C@@H](C(C)C)[C@@H](O)c1c(-c2ccccc2)c1=O` came in with a melting point of 158 to 161 °C.

`NS(=O)(=O)c1cccc2ccccc12` returned a melting point of 152 to 153 °C.

Regarding `CC1(C)Oc2ccc(OCCCC(F)(F)F)cc2[C@H](NS(C)(=O)=O)[C@H]1O`, the melting point amounted to 186 °C.

`CC(C)(C)c1ccc2c(c1)C(=O)c1ccc(-c3nnn[nH]3)cc1S2(=O)=O` returned a melting point of 228 °C.

The compound `CCCCCCCCCCCCCCCCCC(O)c1ccc(C2=NC(C)(C)CO2)cc1` (stereo unspecified) returned a melting point of 72 to 75 °C.

`CCOC(=O)c1cnc(N2CCN(Cc3ccccc3)CC2)nc1O`: the melting point is 151 to 153 °C.

The compound `CCc1c(CCNC(=O)CCCC(=O)NCCc2ccc(OC)c(OC)c2CC)ccc(OC)c1OC` gave a melting point of 171 to 173 °C.

`COC(=O)CCCc1cc2cc(Cl)ccc2n1S(=O)(=O)c1cccc(Cl)c1Cl` gave a melting point of 115 to 117 °C.

Consider `Cc1nc(-c2cnn(-c3c(Cl)cc(C(F)(F)F)cc3Cl)n2)[nH]c1S(=O)(=O)Cl`, for which the melting point was 254 to 255 °C.

Compound `O=C(O)C1(C(=O)Nc2cc(Cl)cc(Cl)c2)CCC1` showed a melting point of 159 to 160 °C.

The compound `NC(=O)c1ncn2c1NCC=C2c1cccc(C(F)(F)F)c1` came in with a melting point of 192 to 194 °C.

Take `OCC1OC(n2cnc3c(Nc4ccccc4Cl)ccnc32)C(O)C1O` (stereo unspecified): the melting point was determined as 207 °C.

On to `CC(=O)Oc1c(C)ccc2c1N=CC1CCCN1C2=O` (stereo unspecified), for which the melting point was 142 to 145 °C.

Take `O=C(c1ccccc1)c1ccc(CCl)cc1`: the melting point is 109 to 111 °C.

`Cn1cc(C2=C(c3c4n(c5ccccc35)CCC(C#N)C4)C(=O)NC2=O)c2ccccc21` (stereo unspecified) gave a melting point of 312 to 313 °C.

The compound `COC(=O)c1ccc(-c2ccccc2)cc1S(=O)(=O)NC(=O)Nc1nc(OC)cc(OC)n1` came in with a melting point of 204 to 206 °C.

With `COc1cc(N2CCC(N3CCOCC3)CC2)ccc1-c1nc2c(N[C@H]3[C@@H](C(N)=O)[C@@H]4C=C[C@H]3C4)c(Br)cnc2[nH]1`, the melting point is 185 to 195 °C.

As to `CC(Oc1ncn(-c2ccc(OC(F)(F)F)cc2)n1)C(=O)O` (stereo unspecified), the melting point was 200 to 203 °C.

On to `CCOc1ccc(Nc2ncc(C(=O)O)c(=O)[nH]2)cc1OCC`, for which the melting point was in the range of 243 to 245 °C.

Regarding `O=C(O)c1cccc(C(=O)c2cc(Cl)cc(C(=O)c3ccccc3O)c2O)c1O`, the melting point fell in the range of 127 to 130 °C.

`COc1ccc(Cl)cc1-c1c(N)c(=O)[nH]c2ccccc12` returned a melting point of 248 to 250 °C.

`COc1cc(OC)c2c(=O)[nH]c(-c3cc(C)c(O)c(C)c3)nc2n1` had a melting point of 297 to 299 °C.

`CCCCOc1c(-c2ccc(S(C)(=O)=O)cc2)cnn(-c2ccc(F)c(F)c2)c1=O`: the melting point fell in the range of 129 to 132 °C.

With `CCC(C)Nc1c([N+](=O)[O-])cc(C(F)(F)F)c(C)c1[N+](=O)[O-]` (stereo unspecified), the melting point lay in the range of 38 to 39 °C.

As for `Cc1c(F)c(F)c(O)c2c(=O)c(C(=O)O)cn(-c3cc(N)c(F)cc3F)c12`, the melting point was above 280 °C.

Compound `O=C(Nc1ccccc1C(=O)NCc1ccccc1)N[C@@H](Cc1ccc(NC(=O)c2c(Cl)cccc2Cl)cc1)C(=O)O` came in with a melting point of 165 °C.

`COc1ccc(C(=O)Nc2ccccc2)cc1NCc1ccc(C)c(C)c1` came in with a melting point of 163 to 164 °C.

The compound `Cc1noc(C)c1S(=O)(=O)n1c(Br)nc(Br)c1Br` returned a melting point of 165 to 170 °C.

Compound `Cc1[nH]n(C2CCCO2)c2nc(-c3ccncc3)nc(=O)c1-2` (stereo unspecified) gave a melting point of 268 to 269 °C.

`C=C(Br)C(=O)Nc1ccccc1`: the melting point was 90.5 to 92.5 °C.
